Measurements taken from ChEMBL document CHEMBL1201862, “PubChem BioAssay data set” (2004).
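Test compounds were applied to cells in 96-well plates for 48 hours at 5 doses. GI50 is the concentration that inhibits growth by half.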 Active and inactive are the calls of the source. No stated cut-off is given here; in the data, active = GI50 up to about 1.1 µM and inactive = higher.

How the values were obtained:
Assay in all cases: growth of human tumour cells (NCI), 48 h
A498 = system: A498
HCT-15 = system: HCT-15
HL-60 = system: HL-60
HOP-62 = system: HOP-62
K562 = system: K562
KM12 = system: KM12
LOX IMVI = system: LOX IMVI
MOLT-4 = system: MOLT-4
NCI-H460 = system: NCI-H460
NCI-H522 = system: NCI-H522
NCI/ADR-RES = system: NCI/ADR-RES
OVCAR-3 = system: OVCAR-3
RPMI-8226 = system: RPMI-8226
SF-268 = system: SF-268
SF-295 = system: SF-295
SN12C = system: SN12C
SNB-19 = system: SNB-19
TK-10 = system: TK-10
UACC-62 = system: UACC-62

SMILES | GI50 (A498) | GI50 (HCT-15) | GI50 (HL-60) | GI50 (HOP-62) | GI50 (K562) | GI50 (KM12) | GI50 (LOX IMVI) | GI50 (MOLT-4) | GI50 (NCI-H460) | GI50 (NCI-H522) | GI50 (NCI/ADR-RES) | GI50 (OVCAR-3) | GI50 (RPMI-8226) | GI50 (SF-268) | GI50 (SF-295) | GI50 (SN12C) | GI50 (SNB-19) | GI50 (TK-10) | GI50 (UACC-62)
O=C1NCN(c2ccccc2)C12CCN(CCCN1CCN(CCOC(c3ccccc3)c3ccccc3)CC1)CC2 | 3.36 µM (inactive) | 1.86 µM | 1.18 µM (inactive) | 3.25 µM (inactive) | 0.447 µM (active) | 2.87 µM (inactive) | 3.01 µM (inactive) | 2.13 µM (inactive) | 3.84 µM (inactive) | 1.73 µM (inactive) | 4.54 µM (inactive) | 3.54 µM (inactive) | 1.67 µM (inactive) | 2.4 µM (inactive) | 2.69 µM (inactive) | 3.82 µM (inactive) | 3.94 µM (inactive) | 3.83 µM (inactive) | 4.27 µM (inactive)
CN(C)c1ccc(/C=C(\NC(=O)c2ccccc2)c2nc3ccccc3c(=O)o2)cc1 | > 100 µM (inactive) | > 100 µM | > 100 µM (inactive) | 71.1 µM (inactive) | > 100 µM (inactive) | > 100 µM (inactive) | > 100 µM (inactive) | > 100 µM (inactive) | > 100 µM (inactive) | 46.7 µM (inactive) | > 100 µM (inactive) | > 100 µM (inactive) | > 100 µM (inactive) | > 100 µM (inactive) | > 100 µM (inactive) | > 100 µM (inactive) | > 100 µM (inactive) | > 100 µM (inactive) | > 100 µM (inactive)
C=C=C(C)[Si](C)(C)C | > 100 µM (inactive) | > 100 µM | 23.7 µM (inactive) | > 100 µM (inactive) | > 100 µM (inactive) | > 100 µM (inactive) | > 100 µM (inactive) | > 100 µM (inactive) | > 100 µM (inactive) | > 100 µM (inactive) | > 100 µM (inactive) | > 100 µM (inactive) | > 100 µM (inactive) | > 100 µM (inactive) | > 100 µM (inactive) | > 100 µM (inactive) | > 100 µM (inactive) | > 100 µM (inactive) | > 100 µM (inactive)
CC(CS(=O)(=O)Cc1ccccc1)C(N)=O (centres undefined) | > 100 µM (inactive) | > 100 µM | > 100 µM (inactive) | > 100 µM (inactive) | > 100 µM (inactive) | > 100 µM (inactive) | > 100 µM (inactive) | > 100 µM (inactive) | > 100 µM (inactive) | > 100 µM (inactive) | > 100 µM (inactive) | > 100 µM (inactive) | > 100 µM (inactive) | > 100 µM (inactive) | > 100 µM (inactive) | > 100 µM (inactive) | > 100 µM (inactive) | > 100 µM (inactive) | > 100 µM (inactive)
Cn1c(=O)c2c(nc3n2CC(C(=O)O)N3)n(C)c1=O (centres undefined) | > 100 µM (inactive) | > 100 µM | > 100 µM (inactive) | > 100 µM (inactive) | 9.1 µM (inactive) | > 100 µM (inactive) | > 100 µM (inactive) | 0.036 µM (active) | > 100 µM (inactive) | > 100 µM (inactive) | > 100 µM (inactive) | > 100 µM (inactive) | > 100 µM (inactive) | > 100 µM (inactive) | > 100 µM (inactive) | > 100 µM (inactive) | > 100 µM (inactive) | > 100 µM (inactive) | > 100 µM (inactive)
COC(C)(C)OCCN1CCN(CCN2C3=C(C=C(C(C)=O)C3)Sc3ccccc32)CC1 | 17.6 µM (inactive) | 19.6 µM | 16.6 µM (inactive) | 19.4 µM (inactive) | 15 µM (inactive) | 16.7 µM (inactive) | 20.7 µM (inactive) | 17.3 µM (inactive) | 18.8 µM (inactive) | 17.5 µM (inactive) | 20.7 µM (inactive) | 22.2 µM (inactive) | 14.3 µM (inactive) | 19.6 µM (inactive) | 19.5 µM (inactive) | 26.7 µM (inactive) | 32.1 µM (inactive) | 19.2 µM (inactive) | 15.3 µM (inactive)
O=C(O)C1OC1(c1cccc(Cl)c1)c1ccccc1Cl (centres undefined) | 79.1 µM (inactive) | 6.76 µM | 17.2 µM (inactive) | 23.9 µM (inactive) | 16.7 µM (inactive) | 29.6 µM (inactive) | 18 µM (inactive) | 27.5 µM (inactive) | 42.7 µM (inactive) | 24.5 µM (inactive) | 18.1 µM (inactive) | 16.1 µM (inactive) | 31.1 µM (inactive) | 20.6 µM (inactive) | 25.7 µM (inactive) | 23 µM (inactive) | 33.9 µM (inactive) | 31.5 µM (inactive) | 14.8 µM (inactive)
NS(=O)(=O)c1nnc(NC(=O)/C=C/C(=O)O)s1 | > 100 µM (inactive) | > 100 µM | > 100 µM (inactive) | > 100 µM (inactive) | > 100 µM (inactive) | > 100 µM (inactive) | > 100 µM (inactive) | > 100 µM (inactive) | > 100 µM (inactive) | > 100 µM (inactive) | > 100 µM (inactive) | > 100 µM (inactive) | > 100 µM (inactive) | > 100 µM (inactive) | > 100 µM (inactive) | > 100 µM (inactive) | > 100 µM (inactive) | > 100 µM (inactive) | > 100 µM (inactive)
O=C(O)C(Cc1c[nH]c2ccccc12)C(=O)NO (centres undefined) | > 100 µM (inactive) | > 100 µM | 53.7 µM (inactive) | > 100 µM (inactive) | > 100 µM (inactive) | > 100 µM (inactive) | > 100 µM (inactive) | > 100 µM (inactive) | > 100 µM (inactive) | > 100 µM (inactive) | > 100 µM (inactive) | 96.8 µM (inactive) | > 100 µM (inactive) | > 100 µM (inactive) | > 100 µM (inactive) | > 100 µM (inactive) | > 100 µM (inactive) | > 100 µM (inactive) | > 100 µM (inactive)
O=C(Nc1ccccc1)c1cc2cc(CCl)ccc2oc1=O | 13 µM (inactive) | > 100 µM | 41.6 µM (inactive) | 81.7 µM (inactive) | 62.2 µM (inactive) | > 100 µM (inactive) | > 100 µM (inactive) | > 100 µM (inactive) | > 100 µM (inactive) | 70.3 µM (inactive) | > 100 µM (inactive) | > 100 µM (inactive) | > 100 µM (inactive) | 47 µM (inactive) | 45.5 µM (inactive) | > 100 µM (inactive) | 80.4 µM (inactive) | 39.8 µM (inactive) | 16.6 µM (inactive)
CC(=O)Nc1ccc(-c2nc3ccccc3s2)cc1Br | 4.54 µM (inactive) | > 59.7 µM | > 100 µM (inactive) | 7.53 µM (inactive) | > 100 µM (inactive) | > 100 µM (inactive) | 71.1 µM (inactive) | > 100 µM (inactive) | > 92.5 µM (inactive) | > 72.3 µM (inactive) | 73.3 µM (inactive) | 0.305 µM (active) | > 92.9 µM (inactive) | 44.3 µM (inactive) | 30.8 µM (inactive) | > 78.9 µM (inactive) | 37.5 µM (inactive) | 0.142 µM (active) | > 72.1 µM (inactive)
